Biological target: Platelet-activating factor receptor (Oryctolagus cuniculus)
Test: In vitro antagonist activity against platelet activating factor (PAF) receptor, using washed rabbit platelets

| Compound | IC50 [nM] |
| --- | --- |
| Cc1nn(C)c2c1N=C(c1ccc(-n3c(C)nc4cnccc43)cc1)CC(=O)N2C [1,3,8-Trimethyl-5-[4-(2-methyl-imidazo[4,5-c]pyridin-1-yl)-phenyl]-6,8-dihydro-1H-pyrazolo[3,4-b][1,4]diazepin-7-one] | 17 |
| Cc1nn(C)c2c1N=C(c1ccc(-n3c(C)nc4cnccc43)cc1)CC(=O)N2 [1,3-Dimethyl-5-[4-(2-methyl-imidazo[4,5-c]pyridin-1-yl)-phenyl]-6,8-dihydro-1H-pyrazolo[3,4-b][1,4]diazepin-7-one] | 26 |
| Cc1nn(C)c2c1NC(=O)CC(c1ccc(-n3c(C)nc4cnccc43)cc1)=N2 [1,3-Dimethyl-7-[4-(2-methyl-imidazo[4,5-c]pyridin-1-yl)-phenyl]-4,6-dihydro-1H-pyrazolo[3,4-b][1,4]diazepin-5-one] | 1 |
| Cc1cc2c(cc1C)-n1c(C)nnc1CC(c1ccc(-n3c(C)nc4cnccc43)cc1)=N2 [1,8,9-Trimethyl-5-[4-(2-methyl-imidazo[4,5-c]pyridin-1-yl)-phenyl]-4H-2,3,6,10b-tetraaza-benzo[e]azulene] | 2.4 |
| Cc1nc2cnccc2n1-c1ccc(C2=Nc3c(-c4ccccc4)nn(C)c3N(C)C(=O)C2)cc1 [1,8-Dimethyl-5-[4-(2-methyl-imidazo[4,5-c]pyridin-1-yl)-phenyl]-3-phenyl-6,8-dihydro-1H-pyrazolo[3,4-b][1,4]diazepin-7-one] | 0.5 |
| Cc1nc2cnccc2n1-c1ccc(C2=Nc3c(-c4ccccn4)nn(C)c3N(C)C(=O)C2)cc1 [1,8-Dimethyl-5-[4-(2-methyl-imidazo[4,5-c]pyridin-1-yl)-phenyl]-3-pyridin-2-yl-6,8-dihydro-1H-pyrazolo[3,4-b][1,4]diazepin-7-one] | 14 |
| Cc1nc2cnccc2n1-c1ccc(C2=Nc3c(-c4cccnc4)nn(C)c3N(C)C(=O)C2)cc1 [1,8-Dimethyl-5-[4-(2-methyl-imidazo[4,5-c]pyridin-1-yl)-phenyl]-3-pyridin-3-yl-6,8-dihydro-1H-pyrazolo[3,4-b][1,4]diazepin-7-one] | 2.4 |
| Cc1nc2cnccc2n1-c1ccc(C2=Nc3c(-c4ccncc4)nn(C)c3N(C)C(=O)C2)cc1 [1,8-Dimethyl-5-[4-(2-methyl-imidazo[4,5-c]pyridin-1-yl)-phenyl]-3-pyridin-4-yl-6,8-dihydro-1H-pyrazolo[3,4-b][1,4]diazepin-7-one] | 5.2 |
| Cc1nc2cnccc2n1-c1ccc(C2=Nc3c(-c4cccs4)nn(C)c3N(C)C(=O)C2)cc1 [1,8-Dimethyl-5-[4-(2-methyl-imidazo[4,5-c]pyridin-1-yl)-phenyl]-3-thiophen-2-yl-6,8-dihydro-1H-pyrazolo[3,4-b][1,4]diazepin-7-one] | 1.5 |
| Cc1nc2cnccc2n1-c1ccc(C2=Nc3c(-c4ccccc4)nn(C)c3NC(=O)C2)cc1 [1-Methyl-5-[4-(2-methyl-imidazo[4,5-c]pyridin-1-yl)-phenyl]-3-phenyl-6,8-dihydro-1H-pyrazolo[3,4-b][1,4]diazepin-7-one] | 0.6 |
| Cc1nc2cnccc2n1-c1ccc(C2=Nc3c(COCC(C)C)nn(C)c3N(C)C(=O)C2)cc1 [3-Isobutoxymethyl-1,8-dimethyl-5-[4-(2-methyl-imidazo[4,5-c]pyridin-1-yl)-phenyl]-6,8-dihydro-1H-pyrazolo[3,4-b][1,4]diazepin-7-one] | 0.8 |

Next, values leading:

| IC50 [nM] | Compound |
| --- | --- |
| 2.7 | Cc1nc2cnccc2n1-c1ccc(C2=Nc3c(c(-c4ccccc4)nn3C)NC(=O)C2)cc1 [1-Methyl-7-[4-(2-methyl-imidazo[4,5-c]pyridin-1-yl)-phenyl]-3-phenyl-4,6-dihydro-1H-pyrazolo[3,4-b][1,4]diazepin-5-one] |
| 0.7 | Cc1nc2cnccc2n1-c1ccc(C2=Nc3c(C4CCCCC4)nn(C)c3N(C)C(=O)C2)cc1 [3-Cyclohexyl-1,8-dimethyl-5-[4-(2-methyl-imidazo[4,5-c]pyridin-1-yl)-phenyl]-6,8-dihydro-1H-pyrazolo[3,4-b][1,4]diazepin-7-one] |
| 0.4 | Cc1nc2cnccc2n1-c1ccc(C2=Nc3c(C4CCCCC4)nn4c3N(CCCC4)C(=O)C2)cc1 [3-Cyclohexyl-6-[4-(2-methyl-imidazo[4,5-c]pyridin-1-yl)-phenyl]-1,2,5,9-tetraaza-tricyclo[7.4.1.0*4,14*]tetradeca-2,4(14),5-trien-8-one] |
| 14 | Cc1nc2cnccc2n1-c1ccc(C2=Nc3c(CO)nn(C)c3N(C)C(=O)C2)cc1 [3-Hydroxymethyl-1,8-dimethyl-5-[4-(2-methyl-imidazo[4,5-c]pyridin-1-yl)-phenyl]-6,8-dihydro-1H-pyrazolo[3,4-b][1,4]diazepin-7-one] |
| 3.5 | Cc1nc2cnccc2n1-c1ccc(C2=Nc3c(C(C)C)nn(C)c3N(C)C(=O)C2)cc1 [3-Isopropyl-1,8-dimethyl-5-[4-(2-methyl-imidazo[4,5-c]pyridin-1-yl)-phenyl]-6,8-dihydro-1H-pyrazolo[3,4-b][1,4]diazepin-7-one] |
| 21 | Cc1cc(C)c2c(n1)N=C(c1ccc(-n3c(C)nc4cnccc43)cc1)CC(=O)N2 [7,9-Dimethyl-4-[4-(2-methyl-imidazo[4,5-c]pyridin-1-yl)-phenyl]-1,3-dihydro-pyrido[3,4-b][1,4]diazepin-2-one] |
| 1.2 | Cc1cnc2n1-c1cc(Cl)c(Cl)cc1N=C(c1ccc(-n3c(C)nc4cnccc43)cc1)C2 [8,9-Dichloro-1-methyl-5-[4-(2-methyl-imidazo[4,5-c]pyridin-1-yl)-phenyl]-4H-3,6,10b-triaza-benzo[e]azulene] |
| 0.3 | Cc1cn2c(n1)CC(c1ccc(-n3c(C)nc4cnccc43)cc1)=Nc1cc(Cl)c(Cl)cc1-2 [8,9-Dichloro-2-methyl-5-[4-(2-methyl-imidazo[4,5-c]pyridin-1-yl)-phenyl]-4H-3,6,10b-triaza-benzo[e]azulene] |
| 1.7 | Cc1nc2cnccc2n1-c1ccc(C2=Nc3cc(Cl)c(Cl)cc3-n3ccnc3C2)cc1 [8,9-Dichloro-5-[4-(2-methyl-imidazo[4,5-c]pyridin-1-yl)-phenyl]-4H-3,6,10b-triaza-benzo[e]azulene] |
| 55 | Cc1cc2c(cc1C)-n1c(n[nH]c1=O)CC(c1ccc(-n3c(C)nc4cnccc43)cc1)=N2 [8,9-Dimethyl-5-[4-(2-methyl-imidazo[4,5-c]pyridin-1-yl)-phenyl]-2,4-dihydro-2,3,6,10b-tetraaza-benzo[e]azulen-1-one] |
| 11 | Cc1cc2c(cc1C)-n1nnnc1CC(c1ccc(-n3c(C)nc4cnccc43)cc1)=N2 [8,9-Dimethyl-5-[4-(2-methyl-imidazo[4,5-c]pyridin-1-yl)-phenyl]-4H-1,2,3,6,10b-pentaaza-benzo[e]azulene] |
| 2.3 | Cc1cc2c(cc1C)-n1cnnc1CC(c1ccc(-n3c(C)nc4cnccc43)cc1)=N2 [8,9-Dimethyl-5-[4-(2-methyl-imidazo[4,5-c]pyridin-1-yl)-phenyl]-4H-2,3,6,10b-tetraaza-benzo[e]azulene] |
| 1.3 | Cc1cc2c(cc1C)-n1ccnc1CC(c1ccc(-n3c(C)nc4cnccc43)cc1)=N2 [8,9-Dimethyl-5-[4-(2-methyl-imidazo[4,5-c]pyridin-1-yl)-phenyl]-4H-3,6,10b-triaza-benzo[e]azulene] |
